From ChEMBL document CHEMBL4819113, “Chemical modifications of ergostane-type triterpenoids from Antrodia camphorata and their cytotoxic activities” (Bioorg Med Chem Lett, 2021)

How the values were obtained:
MCF7 [1] = assay: Cytotoxicity against human MCF7 cells by MTT assay; type: functional, cell-based
SW480 [2] = assay: Cytotoxicity against human SW480 cells by MTT assay; type: functional, cell-based
U-251 [3] = assay: Cytotoxicity against human U-251 cells by MTT assay; type: functional, cell-based
HL-60 [4] = assay: Cytotoxicity against human HL-60 cells by MTT assay; type: functional, cell-based
L02 = assay: Cytotoxicity against human L02 cells by MTT assay; type: cell-based
HL-60 [5] = assay: Cytotoxicity against human HL-60 cells; type: functional, cell-based
U-251 [6] = assay: Cytotoxicity against human U-251 cells; type: functional, cell-based
MCF7 [7] = assay: Cytotoxicity against human MCF7 cells; type: functional, cell-based
SW480 [8] = assay: Cytotoxicity against human SW480 cells; type: functional, cell-based

Compound	IC50 (MCF7 [1]) [µM]	IC50 (SW480 [2]) [µM]	IC50 (U-251 [3]) [µM]	IC50 (HL-60 [4]) [µM]	Activity (L02)	IC50 (HL-60 [5]) [µM]	IC50 (U-251 [6]) [µM]	IC50 (MCF7 [7]) [µM]	IC50 (SW480 [8]) [µM]
C=C(CC[C@@H](C)[C@H]1CC[C@H]2C3=C(C(=O)C[C@]12C)[C@@]1(C)CCC(=O)[C@@H](C)[C@@H]1C[C@H]3OC(C)=O)[C@H](C)C(=O)Nc1[nH]cnc1C(N)=O	17.6	17.9	17.1	> 100					
C=C(CC[C@@H](C)[C@H]1CC[C@H]2C3=C(C(=O)C[C@]12C)[C@@]1(C)CC/C(=N\O)[C@@H](C)[C@@H]1C/C3=N/O)[C@H](C)C(=O)OC	18.2	2.2	3.3	3.7	Non-Toxic				
C=C(CC[C@@H](C)[C@H]1CC[C@H]2C3=C(C(=O)C[C@]12C)[C@@]1(C)CCC(=O)[C@@H](C)[C@@H]1C[C@H]3OC(C)=O)[C@H](C)C(=O)Nc1ncc2ccccc2n1	8.6	40.8	2.9	8.9	Non-Toxic				
C=C(CC[C@@H](C)[C@H]1CC[C@H]2C3=C(C(=O)C[C@]12C)[C@@]1(C)CCC(=O)[C@@H](C)[C@@H]1C[C@H]3OC(C)=O)[C@H](C)C(=O)Nc1ccc2ccccc2n1	> 100	> 100	95.8	96.3					
C=C(CC[C@@H](C)[C@H]1CC[C@H]2C3=C(C(=O)C[C@]12C)[C@@]1(C)CCC(=O)[C@@H](C)[C@@H]1C[C@H]3OC(C)=O)[C@H](C)C(=O)Nc1ccc2[nH]ccc2c1	12.3	> 100	10.4	> 100					
C=C(CC[C@@H](C)[C@H]1CC[C@H]2C3=C(C(=O)C[C@]12C)[C@@]1(C)CCC(=O)[C@@H](C)[C@@H]1C[C@H]3OC(C)=O)[C@H](C)C(=O)OC						16.8	11.4	46.3	15.4
C=C(CC[C@@H](C)[C@H]1CC[C@H]2C3=C(C(=O)C[C@]12C)[C@@]1(C)CCC(=O)[C@@H](C)[C@@H]1CC3=O)[C@H](C)C(=O)OC						25.2	44.9	50.7	> 100
C=C(CC[C@@H](C)[C@H]1CC[C@H]2C3=C(C(=O)C[C@]12C)[C@@]1(C)CCC(=O)[C@@H](C)[C@@H]1C[C@H]3OC(C)=O)[C@H](C)C(=O)/N=c1/cc(CCc2ccccc2)[nH][nH]1	> 100	> 100	> 100	> 100					
C=C(CC[C@@H](C)[C@H]1CC[C@H]2C3=C(C(=O)C[C@]12C)[C@@]1(C)CCC(=O)[C@@H](C)[C@@H]1C[C@H]3OC(C)=O)[C@H](C)C(=O)Nc1cccc2cccnc12	> 100	> 100	> 100	89.2					
C=C(CC[C@@H](C)[C@H]1CC[C@H]2C3=C(C(=O)C[C@]12C)[C@@]1(C)CCC(=O)[C@@H](C)[C@@H]1C[C@H]3OC(C)=O)[C@H](C)C(=O)Nc1nc[nH]n1	> 100	> 100	93.2	> 100					
C=C(CC[C@@H](C)[C@H]1CC[C@H]2C3=C(C(=O)C[C@]12C)[C@@]1(C)CCC(=O)[C@@H](C)[C@@H]1C[C@H]3OC(C)=O)[C@H](C)C(=O)O						> 100	> 100	> 100	> 100
C=C(CC[C@@H](C)[C@H]1CC[C@H]2C3=C(C(=O)C[C@]12C)[C@@]1(C)CCC(=O)[C@@H](C)[C@@H]1C[C@H]3OC(C)=O)[C@H](C)C(=O)Nn1cnnc1	> 100	> 100	82.4	> 100					
C=C(CC[C@@H](C)[C@H]1CC[C@H]2C3=C(C(=O)C[C@]12C)[C@@]1(C)CCC(=O)[C@@H](C)[C@@H]1C[C@H]3OC(C)=O)[C@H](C)C(=O)Nc1ccccc1N	29.2	> 100	27.4	0.7	Non-Toxic				
C=C(CC[C@@H](C)[C@H]1CC[C@H]2C3=C(C(=O)C[C@]12C)[C@@]1(C)CCC(=O)[C@@H](C)[C@@H]1CC3=O)[C@H](C)C(=O)O [ANTCIN B]						> 100	> 100	> 100	> 100
CC(=O)O[C@H]1C(=O)[C@@]2(C)[C@H]([C@H](OC(=O)c3ccccc3)[C@]3(O)C[C@H](OC(=O)[C@H](O)[C@@H](NC(=O)c4ccccc4)c4ccccc4)C(C)=C1C3(C)C)[C@]1(OC(C)=O)CO[C@@H]1C[C@@H]2O [PACLITAXEL]				0.08					
